Where two headings read alike, the source gives them in different places.
How the values were obtained:
[1] = tested on: guinea pig foot pad stratum corneum; experiment: Increase in extensibility of guinea pig foot pad stratum corneum; design: Increase in stratum corneum extensibility: unit not given here
Experimental: The ability of an additive to enhance the delivery to skin of 2-hydroxyoctanoic acid was measured in terms of the increase in extensibility of guinea pig foot pad stratum corneum following contact with each solution.
In this experiment, pieces of guinea pig foot pad stratum corneum, equilibrated at a relative humidity of 65%, were immersed in each solution for 3 hours at 20° C., and then removed, blotted dry and re-equilibrated at the same relative humidity. The extensibility of each piece of guinea pig foot pad stratum corneum was measured before and after this treatment in an extensiometer according to the method described in European Pat. No. 7785.

physchem = conditions: octanol/water
[2] = Dielectric constant of oils measured in a liquid state; type: physicochemical
Source text: The product can also optionally comprise an oil, fat or wax, herein referred to as "oil" having a dielectric constant of not greater than 3.0.
Examples of preferred "oils", when employed, together with their dielectric constants measured when they are in a liquid state are given below: […]

[3] = as recorded in Handbook of Chemistry & Physics, 57th Edition 1976-77; cited from earlier work
[4] = tested on: guinea pig stratum corneum; experiment: Delivery of C14 labelled phenol to guinea pig stratum corneum; conditions: in words
Experimental: The phenol used in the preparation of each emulsion was C^14 labelled phenol.
Pieces of guinea pig stratum corneum were immersed in each of the above emulsions for 20 hours, after which they were removed, blotted dry and the amount of phenol retained by the corneum was measured by a radio tracer technique using a standard methodology.

SMILES	Dielectric constant [2]	Dielectric constant [3]	further results
CCCCCCC(O)C(=O)O (stereo not drawn) [2-hydroxyoctanoic acid]			Increase in stratum corneum extensibility ([1]; 0.2 M 2-hydroxyoctanoic acid + additive at 5% w/w, 3 hours at 20° C., relative humidity 65%): 5; Increase in stratum corneum extensibility / delivery to skin, in words ([1]; conclusion in words): greatly enhanced; logP (physchem): 2.24
CCCCCCCCO [Octanol]	10.3		
CCCCC/C=C\C/C=C\CCCCCCCC(=O)O [linoleic acid]		2.71	
CCCCCCCCCC [n-decane]		1.99	
CCCCCCCCCCCC [n-dodecane]		2.02	
CCCCCCCCCCCCCCCC [n-hexadecane]	< 3.0		
CCCCCCCCCCCCCCCCCC [n-octadecane]	< 3.0		
CCCCCCCCCCCCCC [n-tetradecane]	< 3.0		
CCCCCCCC/C=C\CCCCCCCC(=O)O [oleic acid]		2.46	
Oc1ccccc1 [phenol]			Amount of phenol delivered to the skin relative to ordinary emulsion (Control) [4]: enhanced when a gel phase is present

— patent US4699924A, “Skin treatment composition” (priority 1983, dated 1987)
